From patent US12065434B2, “Metabolites of GLP1R agonists” (Pfizer Inc., priority 2020, dated 2024)

What was measured:
human GLP-1R = target: T1, human GLP-1R (Homo sapiens, UniProt P43220, L260F); test: CHO GLP-1R Clone C6 - Assay 2 (HTRF cAMP agonist assay, low receptor density); type: cell-based; settings: CHO GLP-1R Clone C6 (low receptor density), arithmetic mean, relative to 1 μM GLP-1
T1 construct: expressed in transfected cells
Procedure: GLP-1R-mediated agonist activity was determined with a cell-based functional assay utilizing an HTRF (Homogeneous Time-Resolved Fluorescence) cAMP detection kit (cAMP HI Range Assay Kit; Cis Bio cat #62AM6PEJ) that measures cAMP levels in the cell. The method is a competitive immunoassay between native cAMP produced by the cells and exogenous cAMP labeled with the dye d2. The tracer binding is visualized by a mAb anti-cAMP labeled with Cryptate. The specific signal (i.e. energy transfer) is inversely proportional to the concentration of cAMP in either a standard or an experimental sample.
The human GLP-1R coding sequence (NCBI Reference Sequence NP_002053.3, including naturally-occurring variant Leu260Phe) was subcloned into pcDNA5-FRT-TO and a clonal CHO cell line stably expressing a low receptor density was isolated using the Flp-In™ T-Rex™ System, as described by the manufacturer (ThermoFisher).
Cells were removed from cryopreservation, re-suspended in 40 mL of Dulbecco's Phosphate Buffered Saline (DPBS—Lonza Cat #17-512Q) and centrifuged at 800×g for 5 minutes at 22° C. The DPBS was aspirated, and the cell pellet was re-suspended in 10 mL of complete growth medium (DMEM:F12 1:1 Mixture with HEPES, L-Gln, 500 mL (DMEM/F12 Lonza Cat #12-719F), 10% heat inactivated fetal bovine serum (Gibco Cat #16140-071), 5 mL of 100× Pen-Strep (Gibco Cat #15140-122), 5 mL of 100× L-Glutamine (Gibco Cat #25030-081), 700 μg/mL Hygromycin (Invitrogen Cat #10687010) and 15 μg/mL Blasticidin (Gibco Cat #R21001). A 1 mL sample of the cell suspension in growth media was counted on a Becton Dickinson ViCell to determine cell viability and cell count per mL. The remaining cell suspension was then adjusted with growth media to deliver 1600 viable cells per well using a Matrix Combi Multidrop reagent dispenser, and the cells were dispensed into a white 384 well tissue culture treated assay plate (Corning 3570). The assay plate was then incubated for 48 hours at 37° C. in a humidified environment (95% O2, 5% CO2)
Varying concentrations of each compound to be tested (in DMSO) were diluted in assay buffer [HBSS with Calcium/Magnesium (Lonza/BioWhittaker cat #10-527F)/0.1% BSA (Sigma Aldrich cat #A7409-1L)/20 mM HEPES (Lonza/BioWhittaker cat #17-737E)] containing 100 μM 3-isobutyl-1-methylxanthin (IBMX; Sigma cat #15879). The final DMSO concentration in the compound/assay buffer mixture is 1%.
After 48 hours, the growth media was removed from the assay plate wells, and the cells were treated with 20 μL of the serially diluted compound in assay buffer for 30 minutes at 37° C. in a humidified environment (95% O2, 5% CO2). Following the 30 minute incubation, 10 μL of labeled d2 cAMP and 10 μL of anti-cAMP antibody (both diluted 1:20 in cell lysis buffer; as described in the manufacturer's assay protocol) were added to each well of the assay plate. The plates were then incubated at room temperature and after 60 minutes, changes in the HTRF signal were read with an Envision 2104 multi-label plate reader using excitation of 330 nm and emissions of 615 and 665 nm. Raw data were converted to nM cAMP by interpolation from a cAMP standard curve (as described in the manufacturer's assay protocol) and the percent effect was determined relative to a saturating concentration of the full agonist GLP-1 (1 μM) included on each plate. EC50 determinations were made from agonist dose response curves analyzed with a curve fitting program using a 4-parameter logistic dose response equation.

[1] = system: human co-cultured hepatocytes (Hepatopack); test: In vitro metabolism of Compound 2 in human micropatterned co-cultured hepatocytes (Hepatopack); type: in vitro ADME; set-up: key to Relative abundance of metabolite of Compound 2, Hepatopack: ND Not detected.; trace: Trace: observed by HPLC/MS measurements only.; + Minor as assessed by HPLC/UV measurements; ++ moderate as assessed by HPLC/UV measurements; +++ major as assessed by HPLC/UV measurements.; * m/z 593 and m/z 505 co-eluted in rabbit hepatocytes.; ** m/z 591 c and m/z 593 were merged in human hepatocytes and Hepatopack.; *** m/z 607 and m/z 751 b were merged in rabbit hepatocytes
From the text: Micro-patterned co-cultured (MPCC) hepatocyte 24-well plates containing human donors (16 wells each) were provided by Ascendance Biotechnology (formerly Hepregen Corp. (Medford, MA). [see Wang W W W, Khetani S R, Krzyzewski S, et al. Assessment of a Micropatterned Hepatocyte Coculture System to Generate Major Human Excretory and Circulating Drug Metabolites. Drug Metab Dispos 2010; 38(10):1900-5.] The MPCCs were created at Ascendance Biotechnology and maintained in serum containing medium for 5-6 days to allow for stabilization of the co-cultures prior to shipment. A mixed-gender cryopreserved pool of 10 human donors (X008001-P; lot YFA) was used to seed the plates and was purchased from BioreclamationIVT (Westbury, NY). MPCC hepatocytes are plated with fibroblasts in a 1:3 ratio with ˜25,000 hepatocytes/well in a 24-well plate. 24-Well MPCC plates were shipped to Pfizer, fresh medium (400 μL/well) was applied and cultures were kept at 37° C. with […] and 95% relative humidity for two days. Micropatterned co-cultures containing pooled hepatocytes were allowed 7 days to fully stabilize with respect to liver-specific functions. […] At respective time points (0, 2, and 7 days), the culture medium was removed and mixed with 4 volumes of ACN, then stored frozen at −40° C. until samples could be analyzed. Samples were subsequently processed by the addition of 2.5 mL of 1:1 ACN:MeOH containing 0.1% formic acid. After vortexing, the samples were centrifuged at 1900×g for 5 min, then the supernatant was transferred to 15 mL conical tubes and evaporated under N2 using a Turbovap set at 37° C. The residues were reconstituted in mobile phase (5:95 v:v ACN:0.1% aqueous formic acid) prior to analysis by HPLC/UV/MS^n.
Samples were analyzed by HPLC/UV/MS^n using a Thermo Orbitrap Elite mass spectrometer in conjunction with a Thermo Open Accela UHPLC system. A 3.0×150 mm, 2.5 μm Acquity CSH C18 HPLC column (Waters) was heated to 45° C. for separation of analytes. The mobile phase was a gradient of A): water containing 0.1% formic acid, and B): acetonitrile. The flow rate was 450 μL/min, and the following gradient program was utilized: […]
UV absorbance was monitored with a photo-diode array detector from 220-450 nm. The mass spectrometer was operated in positive-ion mode with a HESI ion source at a potential of 3.0 kV, and capillary and source heater temperatures of 380 and 300° C., respectively. Sheath, auxiliary, and sweep gas flows were set to 45, 10, and 2 units, respectively. Full scan mass spectra were acquired over the range 120-1200 m/z at a resolving power of 30,000 (specified at m/z 400). […]

T1 sequence (P43220 24-463 L260F): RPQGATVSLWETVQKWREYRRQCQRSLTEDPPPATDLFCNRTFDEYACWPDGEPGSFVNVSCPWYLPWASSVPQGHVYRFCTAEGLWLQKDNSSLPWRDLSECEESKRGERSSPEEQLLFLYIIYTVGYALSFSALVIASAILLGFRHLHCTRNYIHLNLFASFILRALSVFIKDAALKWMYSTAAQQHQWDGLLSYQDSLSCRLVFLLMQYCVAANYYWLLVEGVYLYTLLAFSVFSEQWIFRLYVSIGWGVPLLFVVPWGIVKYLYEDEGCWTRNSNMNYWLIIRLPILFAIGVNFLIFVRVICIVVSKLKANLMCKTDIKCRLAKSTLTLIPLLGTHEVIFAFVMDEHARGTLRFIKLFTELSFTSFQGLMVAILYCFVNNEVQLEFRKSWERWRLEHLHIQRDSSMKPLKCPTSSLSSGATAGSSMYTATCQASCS

Row | Emax (human GLP-1R) | abundance of metabolite of Compound 2 in human Hepatopack system ([1]; Compound 2 tris salt 20 μM, up to 7 days) | Relative abundance of metabolite of Compound 2, Hepatopack ([1]; human co-cultured hepatocytes (Hepatopack), HPLC/UV/MS) | SMILES
1 | 68% | most abundant metabolites | – | C[C@]1(c2ccc(Cl)cn2)Oc2cccc(C3CCN(Cc4nc5ccc(C(=O)O[C@@H]6O[C@H](C(=O)O)[C@@H](O)[C@H](O)[C@H]6O)cc5n4C[C@@H]4CCO4)CC3)c2O1 [Metabolite 751b]
2 | – | – | trace | C[C@]1(c2ccc(Cl)cn2)Oc2cccc(C3CCNCC3)c2O1 [Metabolite 331]
